What was measured:
HCV genotype 1b replicon = experiment: HCV Replicon Assay; format: cell-based; settings: Zluc cells (Huh-7-derived, HCV genotype 1b replicon, luciferase reporter), 72 hours; read-out: HCV Replicon EC50
Procedure: Huh-7-derived cell line (Zluc) that harbors an HCV genotype 1b replicon and a luciferase reporter gene was grown in Dulbecco's Modified Eagle Medium (DMEM) supplemented with 10% fetal bovine serum, 2 mM GlutaMAX, 1% MEM nonessential amino acids, 100 IU/mL penicillin, 100 μg/mL streptomycin, and 0.5 mg/mL Geneticin® (G418). For dose response testing the cells were seeded in 96-well plates at 7.5×10^3 cells per well in a volume of 50 μL, and incubated at 37° C./5% CO2. Drug solutions were made up freshly in Huh-7 media as 2× stocks. Ten additional 5-fold dilutions were prepared from these stocks in DMEM without G418. At least three hours after Zluc cells were seeded, drug treatment was initiated by adding 50 μL of drug dilutions to the plates in duplicate. Final concentrations of drug ranged from 100 μM to […]. Cells were then incubated at 37° C./5% CO2. Alternatively, compounds were tested at two concentrations (1 μM and 10 μM). […] For this, media was removed from the plates via gentle tapping. Fifty microliters of ONE-glo luciferase assay reagent was added to each well. The plates were shaken gently for 3 min at room temperature and luminescence was measured on a Victor^3 V 1420 multilabel counter (Perkin Elmer) with a 1 second read time using a 700 nm cut-off filter. The EC50 values were calculated from dose response curves from the resulting best-fit equations determined by Microsoft Excel and XLfit 4.1 software. When screening at two fixed concentrations, the results were expressed as % inhibition at 1 μM and 10 μM.

[1] = Stability in simulated intestinal fluid; format: in vitro ADME; settings: 100 μM, 2 hours at 37° C., percent of the peak area at time zero
Procedure: Simulated gastric and intestinal fluids containing pepsin and pancreatin respectively were prepared according to the U.S. Pharmacopoeia USP291 procedure (www.pharmacopeia.cn/v29240/usp29nf24s0_ris1s126.html). Compounds (final concentration 100 μM) were incubated in duplicate in the appropriate fluid for 2 hours at 37° C. The samples were quenched with 200 μl cold acetonitrile, vortexed for 30 seconds and then centrifuged at 16,100 g for 10 min. The supernatants were analyzed by HPLC on a C-18 column with UV detection at 252 nm. The time 0 samples were prepared by adding SGF or SIF fluid to the quenching solvent followed by the test compound. Stability of the compounds was determined by peak area of the test compounds after incubation and calculated as percent of the peak area observed at time zero.

[2] = Stability in fresh human whole blood; format: in vitro ADME; settings: 0.5 μM, percent unchanged test compound
Procedure: (§1) Stability of compounds were determined in fresh human whole blood with K2EDTA as the anticoagulant (stored refrigerated at 2-8° C. and used within 7 days of receipt). The experiment was conducted with three replicates for each time point. Whole blood, pre-incubated at 37° C. for 10-15 minutes, was fortified with a solution of test compound for a final concentration of 0.5 μM and mixed for 30 sec. At intervals (0, 0.5, 1 and 2 hr), three 50 μL aliquots were combined with 200 μL (each) of an ice-cold solution of the internal standard (carbutamide 500 ng/mL in acetonitrile). The samples were vortexed for 30 sec and then centrifuged at 16,100 g for 5 min. The supernatant was analyzed by LC-MS/MS. The MS peak area ratio of the test compounds versus the internal standard was calculated and percent unchanged test compound was calculated for each time point using this ratio.

fresh human hepatocytes = experiment: Release of active metabolite in fresh human hepatocytes; format: in vitro ADME; settings: 10 μM compound; for FHH TP Cmax: fresh human hepatocytes; for FHH TP AUC: fresh human hepatocytes, 6, 24 and 48 hours
Procedure: (§2) Plates of fresh human and mouse hepatocytes were obtained on ice. The medium was removed and replaced with hepatocyte culture medium (William's E supplemented with penicillin-streptomycin, 1% L-glutamine, 1% insulin-transferrin-selenium and 0.1 μM Dexamethasone (Invitrogen) or with Invitro GRO HI medium complemented with Torpedo antibiotics (Celsis)). Cells were left overnight in an incubator at 37° C. to acclimatize to culture and the medium.
(§3) Hepatocyte incubations were conducted at a final volume of 0.5 mL hepatocyte culture medium/well (0.8 million cells/well for human and 0.5 million cells/well for mouse; 12 well plate no overlay, collagen coat). Culture medium from overnight incubation of cells was removed and replaced with fresh medium, pre-warmed to 37° C., containing 10 μM of test compound from a stock solution in DMSO (final DMSO concentration was 0.1%). At each specific time point, incubation medium was removed and cell monolayers were carefully washed two times with ice-cold PBS. Following the last wash, all PBS was carefully removed and 1.0 mL of extraction solution (ice-cold 70% methanol/30% water) added. Cells were scraped off and suspended in the extraction solution, transferred to 2 mL polypropylene microfuge tubes and intracellular contents extracted overnight at −20° C.
(§4) After the overnight treatment the cellular extracts were prepared by centrifugation at 16,000×g for 10 min to remove cellular debris. The remaining sample was then dried using a refrigerated centrivap concentrator. Dry extracts were reconstituted in 1000 μL of HPLC-grade water and centrifuged at 16,000×g for 10 min. Aliquots (100 μL each) of the supernatant were transferred into a 96 well plate and internal standard (4 ng/mL final concentration) was added as the internal standard (IS) for LC-MS/MS analysis.
(§5) The incubation time points were 6, 24 and 48 hours for human hepatocytes and 1, 4, 8, 12 and 24 hours for mouse hepatocytes.

Zluc cells = experiment: cytotoxicity evaluation (CellTiter-Blue Cell Viability Assay); settings: read-out: HCV Replicon CC50; Zluc cells, CellTiter-Blue
Stability in mouse blood = format: in vitro ADME; settings: on ice, percent unchanged test compound
Procedure: as §1
The stability in mouse blood was determined on ice at 0, 0.5 and 1 hr as herein.

mouse hepatocytes = experiment: Release of active metabolite in mouse hepatocytes; format: in vitro ADME; settings: 10 μM compound; for MsH AUC: mouse hepatocytes, 1, 4, 8, 12 and 24 hours
Procedure: as §2, §3, §4, §5

[3] = Plasma pharmacokinetics following a single oral dose in CD-1 mice; format: in vivo; settings: single oral dose 25 mg/kg in PEG 200, CD-1 male mice; given at 1 μmol/kg
Procedure: (§6) A single oral dose of test compound at 25 mg/kg in PEG 200 (dose volume 5 mL/kg) was administered to nine CD-1 male mice. Five untreated animals were used for the collection of control plasma and liver. Terminal plasma and liver samples were collected from three animals per time point at 4, 12 and 24 hours post dose. Liver specimens were collected from all animals immediately after the incision. Freezing forceps stored in liquid nitrogen were used to freeze the liver before excision.
Plasma samples were analyzed for 2′-methylguanosine (2′-MeG) by LC-MS/MS. The internal standard (IS) was 2′-MeG-D3. For protein precipitation and extraction, each plasma sample (50 μL) was treated with 500 μL of 0.2% formic acid in acetonitrile and 20 μL of the internal standard working solution. After vortexing and centrifugation, 500 μL of the sample extracts were transferred to a new plate, dried under N2 at ˜28° C. and reconstituted with 75 μL of 0.2% FA in water. The extracts were chromatographed on an Aquasil C18 column using a gradient system of 0.2% formic acid in water and acetonitrile. The analytes were detected and quantified by tandem mass spectrometry in positive ion mode on an MDS Sciex API5000 equipped with a Turbo Ionspray® interface. The calibration range was 0.500 (LLOQ) to 200 ng/mL in mouse plasma.

[4] = Liver pharmacokinetics following a single oral dose in CD-1 mice; format: in vivo; settings: single oral dose 25 mg/kg in PEG 200, CD-1 male mice; given at 1 μmol/kg
Procedure: as §6
Liver samples were analyzed for the active species 2′-methylguanosine triphosphate (2′-MeGTP) by LC-MS/MS. 2′-MeGTP levels were assayed by homogenizing (on ice) a known weight of mouse liver with 4× volume of 0.95 M trichloroacetic acid (TCA). Internal standard solution was added to the homogenate followed by neutralization with 20% ammonium hydroxide solution and addition of 500 μL 1% formic acid. The tissue samples were extracted by weak anion exchange solid phase extraction (SPE). Post extraction, the eluates were evaporated under nitrogen, followed by reconstitution before injection onto the LC-MS/MS system. The samples were chromatographed on a Luna NH2 column using a gradient system of ammonium acetate (1 mM to 20 mM and pH 8.0 to pH 10.0) in water and acetonitrile (70:30). The analyte was detected and quantified by tandem mass spectrometry in positive ion mode on an API4000 equipped with a Turbo Ionspray® interface. The calibration range was 10 to 10000 pmol/mL in mouse liver homogenate (50 to 50000 pmol/g of mouse liver).

| Compound | EC50 (HCV genotype 1b replicon) | Stability SIF [1] | Stability WB_Human (37° C.; 2 hr) [2] | FHH TP Cmax (fresh human hepatocytes) | FHH TP AUC (fresh human hepatocytes) | CC50 (Zluc cells) | Stability WB_Mouse (ice; 1 hr) (Stability in mouse blood) | MsH AUC (mouse hepatocytes) | MsH Cmax (mouse hepatocytes; mouse hepatocytes) | Ms Plasma 2′-MeG AUC [3] | Ms Plasma 2′-MeG Cmax [3] | Ms Liver 2′-MeGTP AUC [4] |
| --- | --- | --- | --- | --- | --- | --- | --- | --- | --- | --- | --- | --- |
| CCOC(=O)CCOP1(=O)OC[C@H]2O[C@@H](n3cnc4c(OCC)nc(N)nc43)[C@](C)(F)[C@@H]2O1 (single isomer, unassigned; diastereomer 2) [Compound 8 Diastereomer 2] | < 0.25 µM | 94% | 34% | BLD^a | BLD^a | > 50 µM | – | – | – | – | – | – |
| CCOC(=O)CCOP1(=O)OC[C@H]2O[C@@H](n3cnc4c(OCC)nc(N)nc43)[C@](C)(F)[C@@H]2O1 (single isomer, unassigned; diastereomer 1) [Compound 8 Diastereomer 1] | < 0.25 µM | 96% | 89% | BLD^a | BLD^a | > 50 µM | – | – | – | – | – | – |
| CCOc1nc(N)nc2c1ncn2C1OC2COP(=O)(Oc3ccc(CC(NC(=O)OC)C(=O)OC(C)C)cc3)OC2C1(C)F (single isomer, unassigned; diastereomer 2) [Compound 13 Diastereomer 2] | < 0.25 µM | 72% | 70% | 34 pmol/mill cells | 812 pmol · hr/mill cells | > 50 µM | 1% | – | – | – | – | – |
| CCOc1nc(N)nc2c1ncn2[C@@H]1O[C@@H]2COP(=O)(OCCCC(=O)OC(C)C)O[C@H]2[C@@]1(C)F (single isomer, unassigned; diastereomer 1) [Compound 3 Diastereomer 1] | < 0.25 µM | 92% | 20.5% | – | – | < 50 µM | 14% | – | – | – | – | – |
| CCOc1nc(N)nc2c1ncn2C1OC2COP(=O)(OCC(NC(=O)OC)C(=O)OC(C)C)OC2C1(C)O (single isomer, unassigned; diastereomer 1) [Compound 14 Diastereomer 1] | < 0.25 µM | 88% | 62% | 19 pmol/mill cells | 224 pmol · hr/mill cells | < 50 µM | – | – | – | – | – | – |
| CCOc1nc(N)nc2c1ncn2[C@@H]1O[C@@H]2COP(=O)(OCCC(=O)OC(C)C)O[C@H]2[C@@]1(C)F (single isomer, unassigned; diastereomer 1) [Compound 21 Diastereomer 1] | – | 91% | 86% | BLD^a | BLD^a | – | – | BLD^a | – | – | – | – |
| CCOc1nc(N)nc2c1ncn2[C@@H]1O[C@@H]2COP(=O)(OCCC(=O)OC(C)C)O[C@H]2[C@@]1(C)O (single isomer, unassigned; diastereomer 2) [Compound 22 Diastereomer 2] | < 0.25 µM | 101% | 88% | 28 pmol/mill cells | 742 pmol · hr/mill cells | > 50 µM | – | BLD^a | – | – | – | – |
| CCOc1nc(N)nc2c1ncn2[C@@H]1O[C@@H]2COP(=O)(OCCCC(=O)OC(C)C)O[C@H]2[C@@]1(C)F (single isomer, unassigned; diastereomer 2) [Compound 3 Diastereomer 2] | – | – | – | 146 pmol/mill cells | 4574 pmol · hr/mill cells | – | – | 3265 pmol · hr/mill cells | 91 pmol/mill cells | 160 pmol · hr/mL at 1 μmol/kg | 17 pmol/mL at 1 μmol/kg | 3200 pmol · hr/g at 1 μmol/kg |
